Test results published in the supplement of paper PMC10307832.

Columns and labels:
Assay in all cases: relative viability (nuclei count vs DMSO), 5 days (fraction); higher = more cells survive
Vismodegib + Luminespib = compound: CS(=O)(=O)c1ccc(C(=O)Nc2ccc(Cl)c(-c3ccccn3)c2)c(Cl)c1 [Vismodegib] + CCNC(=O)c1noc(-c2cc(C(C)C)c(O)cc2O)c1-c1ccc(CN2CCOCC2)cc1 [Luminespib] (partner 0.01 µM)
In short: (§1)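 Lung cancer cell lines in 1536-well plates were dosed by pin tool the day after seeding, either with one drug alone or with a fixed anchor-drug dose plus five library-drug doses (not always all listed) in √10 steps. After 5 days, cells were fixed and their nuclei stained in one step (final 0.05% Triton X-100, 1% formaldehyde, 1 ug/ml Hoechst), then counted on 4× images. Relative viability is the nuclei count in treated wells divided by that in vehicle wells. Values are medians of duplicate plates.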

Vismodegib + Bortezomib = compound: CS(=O)(=O)c1ccc(C(=O)Nc2ccc(Cl)c(-c3ccccn3)c2)c(Cl)c1 [Vismodegib] + CC(C)C[C@H](NC(=O)[C@H](Cc1ccccc1)NC(=O)c1cnccn1)B(O)O [Bortezomib] (partner 0.002 µM)
In short: as §1

Ruxolitinib + Luminespib = compound: N#CC[C@H](C1CCCC1)n1cc(-c2ncnc3[nH]ccc23)cn1 [Ruxolitinib] + CCNC(=O)c1noc(-c2cc(C(C)C)c(O)cc2O)c1-c1ccc(CN2CCOCC2)cc1 [Luminespib] (partner 0.01 µM)
In short: as §1

VE-821 + Pemetrexed = compound: CS(=O)(=O)c1ccc(-c2cnc(N)c(C(=O)Nc3ccccc3)n2)cc1 [VE-821] + Nc1nc2[nH]cc(CCc3ccc(C(=O)N[C@@H](CCC(=O)O)C(=O)O)cc3)c2c(=O)[nH]1 [Pemetrexed] (partner 0.2 µM)
In short: as §1

| Cell Line | relative viability (Vismodegib + Luminespib; first compound 0.08 µM) | relative viability (Vismodegib + Luminespib; first compound 0.253 µM) | relative viability (Vismodegib + Luminespib; first compound 0.8 µM) | relative viability (Vismodegib + Luminespib; first compound 2.53 µM) | relative viability (Vismodegib + Luminespib; first compound 8 µM) | relative viability (Vismodegib + Bortezomib; first compound 0.08 µM) | relative viability (Vismodegib + Bortezomib; first compound 0.253 µM) | relative viability (Vismodegib + Bortezomib; first compound 0.8 µM) | relative viability (Vismodegib + Bortezomib; first compound 2.53 µM) | relative viability (Vismodegib + Bortezomib; first compound 8 µM) | relative viability (Ruxolitinib + Luminespib; first compound 0.08 µM) | relative viability (Ruxolitinib + Luminespib; first compound 0.253 µM) | relative viability (Ruxolitinib + Luminespib; first compound 0.8 µM) | relative viability (Ruxolitinib + Luminespib; first compound 2.53 µM) | relative viability (Ruxolitinib + Luminespib; first compound 8 µM) | relative viability (VE-821 + Pemetrexed; first compound 0.08 µM) | relative viability (VE-821 + Pemetrexed; first compound 0.253 µM) | relative viability (VE-821 + Pemetrexed; first compound 0.8 µM) | relative viability (VE-821 + Pemetrexed; first compound 2.53 µM) | relative viability (VE-821 + Pemetrexed; first compound 8 µM) |
| --- | --- | --- | --- | --- | --- | --- | --- | --- | --- | --- | --- | --- | --- | --- | --- | --- | --- | --- | --- | --- |
| HCC-15 | 0.17 | 0.267 | 0.254 | 0.508 | 0.29 | 0.978 | 1.07 | 0.938 | 1.09 | 1 | 0.345 | 0.216 | 0.555 | 0.302 | 0.203 | 0.219 | 0.23 | 0.21 | 0.211 | 0.179 |
| HCC-44 | 1 | 0.966 | 1 | 0.979 | 1.05 | 0.918 | 0.816 | 0.897 | 0.841 | 0.901 | 1.02 | 1.07 | 1.2 | 0.689 | 0.527 | 0.613 | 0.649 | 0.596 | 0.479 | 0.447 |
| HCC-78 | – | – | – | – | – | – | 0.498 | 0.488 | 0.549 | 0.4 | – | – | – | – | – | 0.875 | 0.904 | 0.903 | 0.853 | 0.89 |
| HCC-366 | – | – | – | – | – | 1.06 | 1.03 | 1.06 | 0.934 | 1.06 | – | – | – | – | – | 0.159 | 0.127 | 0.144 | 0.0815 | 0.06 |
| HCC-827 | 0.658 | 0.762 | 0.691 | 0.589 | 0.733 | 1.05 | 1.06 | 0.982 | 1.14 | 0.985 | – | 0.578 | 0.679 | 0.519 | 0.562 | 0.248 | 0.306 | 0.251 | 0.23 | 0.213 |
| IA-LM | – | – | – | – | – | 0.892 | 0.825 | 0.867 | 0.754 | 0.795 | – | – | – | – | – | – | – | – | – | – |
| LK-2 | 0.175 | 0.185 | 0.207 | 0.151 | 0.214 | – | – | – | – | – | 0.184 | 0.157 | 0.187 | 0.203 | 0.168 | 0.357 | 0.295 | 0.299 | 0.267 | 0.262 |
| NCI-H358 | 0.325 | 0.258 | 0.418 | 0.33 | 0.204 | – | – | – | – | – | 0.309 | 0.238 | 0.312 | 0.362 | 0.168 | 0.177 | 0.199 | 0.177 | 0.166 | 0.122 |
| NCI-H522 | 1.1 | 1.1 | 0.939 | 1.34 | 1.09 | – | – | – | – | – | 1.14 | 1.81 | 1.25 | 0.884 | 1.64 | 1.28 | 1 | 0.909 | 1.16 | 0.778 |
| NCI-H727 | 0.428 | 0.518 | 0.322 | 0.359 | 0.422 | 0.876 | 0.835 | 0.905 | 0.939 | 0.77 | 0.3 | 0.357 | 0.655 | 0.35 | 0.2 | – | – | – | – | – |
| NCI-H1299 | – | – | – | – | – | 1.01 | 0.985 | 1.04 | 1.01 | 0.973 | – | – | – | – | – | – | – | – | – | – |
| NCI-H1395 | 0.708 | 0.764 | 0.535 | 0.624 | 0.621 | – | – | – | – | – | 0.89 | 0.661 | 0.863 | 0.623 | 0.592 | 0.792 | 0.789 | 0.827 | 0.745 | 0.486 |
| NCI-H1623 | 0.483 | 0.439 | 0.611 | 0.457 | 0.6 | – | – | – | – | – | 0.423 | 0.431 | 0.705 | 0.526 | 0.765 | – | – | – | – | – |
| NCI-H1648 | – | – | – | – | – | – | – | – | – | – | – | – | – | – | – | 0.977 | – | 0.569 | 0.63 | 0.611 |
| NCI-H1703 | – | – | – | – | – | 0.368 | 0.257 | 0.372 | 0.342 | 0.401 | – | – | – | – | – | – | – | – | – | – |
| NCI-H1793 | – | 0.214 | 0.189 | 0.482 | 0.19 | – | – | – | – | – | 0.221 | 0.204 | 0.169 | 0.156 | 0.136 | 1.2 | 0.769 | – | 1.13 | 0.565 |
| NCI-H1944 | 0.729 | 0.716 | 0.782 | 0.758 | 0.83 | – | – | – | – | – | 0.696 | 0.628 | 0.723 | 0.73 | 0.716 | 0.693 | 0.695 | 0.495 | 0.384 | 0.172 |
| NCI-H2170 | 0.677 | 0.513 | 0.762 | 0.645 | 0.7 | – | – | – | – | – | 0.687 | 0.509 | 0.954 | 0.643 | 0.817 | 0.277 | 0.23 | 0.281 | 0.234 | 0.177 |
| NCI-H2342 | 0.588 | 0.728 | 0.748 | 0.79 | 0.71 | – | – | – | – | – | 0.748 | 0.79 | 0.863 | 0.788 | 0.728 | 0.792 | 0.777 | 0.804 | 0.736 | 0.667 |
| SK-MES-1 | 0.775 | 0.765 | 0.849 | 0.853 | 0.922 | – | – | – | – | – | 0.782 | 0.84 | 0.762 | 0.652 | 0.549 | 0.98 | 0.934 | 0.838 | 0.612 | 0.352 |
| SW 900 | 0.183 | 0.164 | 0.164 | 0.19 | 0.163 | – | – | – | – | – | 0.175 | 0.181 | 0.181 | 0.154 | 0.193 | 0.494 | 0.504 | 0.461 | 0.46 | 0.221 |
